According to US20220356494A1, “METHODS AND COMPOSITIONS FOR TREATING CANCER” (Engine Biosciences Pte. Ltd., priority 2019, published 2022):
Like-named read-outs stand apart in the source and are kept apart here. Each block holds one compound with its values, some of them ahead of it.

Tests used:
cancer cell lines = test: Cellular IC50 (GI50) of RON inhibitors with or without Dasatinib in cancer cell lines; format: cell-based; conditions: all tested cell lines; co-administered with Dasatinib
Excerpt: FIGS. 12A-12C show additional example data of a small molecule approach to inhibit SRC and RON in cancer cells. As described herein, one approach to validate the CombiGEM results (dual SRC and RON knockout using Cas and DNA constructs) can include using small molecule inhibitors to reduce function of SRC or RON. […] FIG. 12B and FIG. 12C show plots of GI50 as a function of treatment with RON inhibitors Foretinib or a Met/Ron inhibitor, respectively, co-administered with Dasatinib.

cMet = cMet (Homo sapiens, UniProt P08581); test: cMet inhibition (percent activity vs log concentration)
Chain of cMet (P08581 25-1390): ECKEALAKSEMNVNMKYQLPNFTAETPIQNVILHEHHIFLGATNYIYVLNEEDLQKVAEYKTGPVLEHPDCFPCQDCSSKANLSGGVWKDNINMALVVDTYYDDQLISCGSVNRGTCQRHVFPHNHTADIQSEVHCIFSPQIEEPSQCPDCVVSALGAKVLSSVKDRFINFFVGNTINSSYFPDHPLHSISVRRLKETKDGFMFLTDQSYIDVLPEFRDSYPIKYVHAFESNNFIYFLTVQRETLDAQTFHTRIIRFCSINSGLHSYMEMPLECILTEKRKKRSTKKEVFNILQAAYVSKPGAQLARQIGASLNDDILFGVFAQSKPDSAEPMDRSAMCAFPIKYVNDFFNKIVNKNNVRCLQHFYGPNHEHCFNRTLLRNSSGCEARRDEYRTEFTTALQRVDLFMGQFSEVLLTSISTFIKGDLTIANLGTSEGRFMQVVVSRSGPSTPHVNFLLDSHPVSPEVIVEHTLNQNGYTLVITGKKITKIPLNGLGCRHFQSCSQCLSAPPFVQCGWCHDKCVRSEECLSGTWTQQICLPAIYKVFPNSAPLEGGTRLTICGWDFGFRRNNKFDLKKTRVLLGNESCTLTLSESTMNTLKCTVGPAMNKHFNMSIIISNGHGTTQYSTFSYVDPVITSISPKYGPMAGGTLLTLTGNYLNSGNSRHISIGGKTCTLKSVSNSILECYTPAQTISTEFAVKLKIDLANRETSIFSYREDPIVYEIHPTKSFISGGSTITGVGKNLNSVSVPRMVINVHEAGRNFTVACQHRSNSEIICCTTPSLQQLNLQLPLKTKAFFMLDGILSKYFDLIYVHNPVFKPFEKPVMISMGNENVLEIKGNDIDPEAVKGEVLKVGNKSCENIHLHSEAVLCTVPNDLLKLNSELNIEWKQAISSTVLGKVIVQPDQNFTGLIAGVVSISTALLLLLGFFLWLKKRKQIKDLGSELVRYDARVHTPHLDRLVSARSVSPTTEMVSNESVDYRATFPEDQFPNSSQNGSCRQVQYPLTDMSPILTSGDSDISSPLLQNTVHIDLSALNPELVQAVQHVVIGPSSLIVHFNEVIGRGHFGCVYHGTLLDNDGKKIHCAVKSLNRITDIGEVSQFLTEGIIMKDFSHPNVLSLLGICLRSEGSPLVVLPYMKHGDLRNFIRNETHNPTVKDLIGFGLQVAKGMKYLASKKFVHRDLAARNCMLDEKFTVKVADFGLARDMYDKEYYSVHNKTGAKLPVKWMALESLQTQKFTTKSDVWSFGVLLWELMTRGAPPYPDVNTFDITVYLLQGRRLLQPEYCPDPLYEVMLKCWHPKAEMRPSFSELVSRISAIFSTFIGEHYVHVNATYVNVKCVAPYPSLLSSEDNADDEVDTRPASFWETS
Excerpt: (§1) The plot indicates percent activity of RON or cMet as a function of the log concentration of the compound (in moles, M). From the plot, the IC50 values may be obtained.

RON [1] = target: T1, RON (Homo sapiens, UniProt Q04912); test: RON inhibition (percent activity vs log concentration)
T1 sequence (Q04912 25-1400): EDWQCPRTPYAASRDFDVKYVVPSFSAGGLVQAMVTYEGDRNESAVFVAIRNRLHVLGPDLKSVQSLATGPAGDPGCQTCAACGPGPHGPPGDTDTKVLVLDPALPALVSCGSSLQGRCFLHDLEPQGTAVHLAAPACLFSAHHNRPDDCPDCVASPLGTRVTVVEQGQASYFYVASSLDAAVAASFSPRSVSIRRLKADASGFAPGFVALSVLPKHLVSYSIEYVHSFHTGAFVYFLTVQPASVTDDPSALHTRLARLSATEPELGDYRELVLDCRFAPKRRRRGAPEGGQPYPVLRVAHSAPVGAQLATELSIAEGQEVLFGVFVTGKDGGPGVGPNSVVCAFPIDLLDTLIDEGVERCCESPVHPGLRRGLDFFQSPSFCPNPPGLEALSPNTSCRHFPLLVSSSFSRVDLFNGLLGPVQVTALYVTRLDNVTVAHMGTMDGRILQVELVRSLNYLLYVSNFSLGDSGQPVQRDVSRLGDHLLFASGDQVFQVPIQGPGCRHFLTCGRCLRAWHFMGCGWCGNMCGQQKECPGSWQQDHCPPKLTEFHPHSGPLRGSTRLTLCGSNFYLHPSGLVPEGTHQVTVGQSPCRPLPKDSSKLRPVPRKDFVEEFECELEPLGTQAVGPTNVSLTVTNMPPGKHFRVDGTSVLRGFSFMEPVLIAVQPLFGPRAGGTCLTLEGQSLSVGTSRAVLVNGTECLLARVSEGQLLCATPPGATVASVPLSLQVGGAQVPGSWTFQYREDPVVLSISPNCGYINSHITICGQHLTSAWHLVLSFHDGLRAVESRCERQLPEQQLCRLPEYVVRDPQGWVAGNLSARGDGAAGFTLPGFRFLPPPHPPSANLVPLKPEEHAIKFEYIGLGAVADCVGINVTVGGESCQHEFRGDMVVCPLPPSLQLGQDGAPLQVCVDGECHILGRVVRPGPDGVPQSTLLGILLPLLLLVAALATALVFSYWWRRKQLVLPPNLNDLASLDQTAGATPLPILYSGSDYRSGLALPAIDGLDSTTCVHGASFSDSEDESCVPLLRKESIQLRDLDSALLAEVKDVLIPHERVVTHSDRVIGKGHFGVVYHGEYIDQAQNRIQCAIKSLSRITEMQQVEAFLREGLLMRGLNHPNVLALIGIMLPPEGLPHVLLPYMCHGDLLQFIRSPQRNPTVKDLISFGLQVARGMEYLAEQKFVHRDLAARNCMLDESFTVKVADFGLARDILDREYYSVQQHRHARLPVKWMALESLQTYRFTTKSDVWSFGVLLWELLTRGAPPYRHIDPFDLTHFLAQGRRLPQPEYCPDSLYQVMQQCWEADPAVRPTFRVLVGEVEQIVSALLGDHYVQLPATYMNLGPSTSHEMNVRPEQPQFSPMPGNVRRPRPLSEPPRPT
Excerpt: as §1

[2] = test system: MDA-MB-231 tumor xenografts; test: MDA-MB-231 tumor xenograft, tumor volume
RON [3] = target: T1, RON; test: RON dissociation constant (Kd); format: binding
Excerpt: The four compounds “ENG-009”, “ENG-015”, “ENG-018”, and“ENG-035” are shown, along with their Ron and cMet inhibitory activities.

MDA-MB-231 cells = test: MDA-MB-231 cell viability as a function of SU-6656 concentration, with or without Dasatinib co-treatment; format: cell-based; conditions: Homo sapiens, MDA-MB-231, MDA-MB-231, read-out: concentration of SU-6656 at 50% viability
Protocol: An additional approach to validate the CombiGEM results (dual SRC and YES knockout using Cas and DNA constructs) can include using small molecule inhibitors to reduce the function of SRC or YES. […] One group of cells is treated with only the YES inhibitor and the vehicle control (DMSO only). Two groups of cells are co-treated with Dasatinib, a SRC inhibitor, at a concentration of 500 nM or 1 μM. The control group (DMSO only, no Dasatinib) has a 50% viability at a concentration of 68.6 μM of SU-6656, compared to 20.4 μM for the cells co-treated with 500 nM Dasatinib and 12.7 μM for the cells co-treated with 1 μM Dasatinib.

506 cell lines = test: Sensitivity of 506 cell lines to Dasatinib; format: cell-based; conditions: FIG. 10
Excerpt: The bar plot indicates the effect of various SRC inhibitors, YES inhibitors, or dual SRC/YES inhibitors on the sensitivity of the cells to inhibition; along with an inhibitor for an unrelated/control kinase WEE1. Each bar represents a different type of inhibitor, which may inhibit SRC, YES, SRC and YES, or WEE1. Bars 1-2 from the left of the plot indicate cells are most sensitive to inhibition when SRC and YES are both inhibited. Bars 3-6 from the left of the plot indicate sensitivity to inhibition for cells treated with SRC inhibitors. Bar 7 from the left of the plot indicates sensitivity to inhibition for cells treated with WEE1 inhibitor. […] from the left of the plot also indicate sensitivity to inhibition for cells treated with SRC inhibitors. Bar 9 from the left of the plot indicates sensitivity to inhibition for cells treated with YES1 inhibitor. Bar 10 from the left of the plot indicates sensitivity to inhibition for cells treated with WEE1 inhibitor. Increased sensitivity to inhibition is observed in SRC and YES dual inhibition, compared to SRC-only inhibition or YES-only inhibition. In FIG. 10, 506 cell lines are compared for sensitivity to Dasatinib (SRC and YES inhibitor). 119 of the 506 cell lines are more sensitive to Dasatinib than MDA-MB-231 cells. […] Cell lines that are sensitive to Dasatinib are more sensitive to other dual inhibitors of YES and SRC.

Compound: COc1cc2c(Oc3ccc(NC(=O)C4(C(=O)Nc5ccc(F)cc5)CC4)cc3F)ccnc2cc1OCCCN1CCOCC1 [Foretinib, N1′-[3-fluoro-4-[[6-methoxy-7-(3-morpholinopropoxy)-4-quinolyl]oxy]phenyl]-N1-(4-fluorophenyl)cyclopropane-1,1-dicarboxamide]
- potency (GI50) of RON inhibitor in the presence of Dasatinib vs its absence (DMSO) (cancer cell lines): potency (lower GI50) is greater for the RON inhibitor in the presence of Dasatinib than in its absence

Compound: CC1=C(C#N)C(c2ccc3[nH]nc(OCCOC(C)C)c3c2)C(C#N)=C(C)N1 [tool compound 2, 4-(3-(2-isopropoxyethoxy)-1H-indazol-5-yl)-2,6-dimethyl-1,4-dihydropyridine-3,5-dicarbonitrile]
- IC50 (RON [1]): 8600 nM

Compound: Cc1nc(Nc2ncc(C(=O)Nc3c(C)cccc3Cl)s2)cc(N2CCN(CCO)CC2)n1.O [Dasatinib, N-(2-chloro-6-methylphenyl)-2-[[6-[4-(2-hydroxyethyl)-1-piperazinyl]-2-methyl-4-pyrimidinyl]amino]-5-thiazole carboxamide monohydrate]
- tumor growth compared to vehicle control ([2]; SRC inhibitor only, Dasatinib 10 mpk): slightly lower compared to the vehicle control
- number of the 506 cell lines more sensitive to Dasatinib than MDA-MB-231 cells (506 cell lines): 119

Continued, in another order:

- IC50 (cMet): 7.3 nM
- IC50 (RON [1]): 8.5 nM
- selectivity for RON over cMet (cMet IC50/RON IC50) (RON [1]; ratio): 0.9
Compound: CCOc1ccn(-c2ccc(F)cc2)c(=O)c1C(=O)Nc1ccc(Oc2ccnc(N)c2Cl)c(F)c1 [BMS777607, N-[4-[(2-amino-3-chloro-4-pyridinyl)oxy]-3-fluorophenyl]-4-ethoxy-1-(4-fluorophenyl)-2-oxo-3-pyridinecarboxamide]
- potency (GI50) of RON inhibitor in the presence of Dasatinib vs its absence (DMSO) (cancer cell lines): potency (lower GI50) is greater for the RON inhibitor in the presence of Dasatinib than in its absence
- tumor growth compared to vehicle control ([2]; RON inhibitor only, BMS777607 20 mpk): slightly lower compared to the vehicle control

- Kd (RON [3]): 43 nM
- selectivity for RON over cMet (cMet IC50/RON IC50) (RON [1]): ~2.3 fold
Compound: Cn1cnc(-c2nc3nccc(Oc4ccc(NC(=O)c5cnn(-c6ccccc6)c5C(F)(F)F)cc4F)c3s2)c1 [ENG-035, N-(3-fluoro-4-((2-(1-methyl-1H-imidazol-4-yl)thiazolo[4,5-b]pyridin-7-yl)oxy)phenyl)-1-phenyl-5-(trifluoromethyl)-1H-pyrazole-4-carboxamide]

- IC50 (RON [1]): 1.6 nM
- selectivity for RON over cMet (cMet IC50/RON IC50) (RON [1]): approximately 10 fold
Compound: CCN1CCN(CCCOc2cc3nccc(Oc4c(F)cc(NC(=O)NN5C(=O)CSC5c5c(F)cccc5F)cc4F)c3cc2OC)CC1 (stereo not shown) [ENG-013, 1-(2-(2,6-difluorophenyl)-4-oxothiazolidin-3-yl)-3-(4-((7-(3-(4-ethylpiperazin-1-yl)propoxy)-6-methoxyquinolin-4-yl)oxy)-3,5-difluorophenyl)urea]

- IC50 (MDA-MB-231 cells; DMSO only, no Dasatinib): 68600 nM
- IC50 (MDA-MB-231 cells; co-treated with 500 nM Dasatinib): 20400 nM
- IC50 (MDA-MB-231 cells; co-treated with 1 μM Dasatinib): 12700 nM
Compound: CN(C)S(=O)(=O)c1ccc2c(c1)/C(=C/c1cc3c([nH]1)CCCC3)C(=O)N2 [SU-6656, (3Z)-N,N-Dimethyl-2-oxo-3-(4,5,6,7-tetrahydro-1H-indol-2-ylmethylidene)-2,3-dihydro-1H-indole-5-sulfonamide]

- cMet inhibition (in words) (cMet): inactive
- IC50 (RON [1]): 222 to 291 nM
Compound: Cn1cnc(-c2nc3c(Oc4ccc(NC(=O)c5cnn(-c6ccccc6)c5C(F)(F)F)cc4F)ncnc3s2)c1 [ENG-009, N-(3-fluoro-4-((2-(1-methyl-1H-imidazol-4-yl)thiazolo[5,4-d]pyrimidin-7-yl)oxy)phenyl)-1-phenyl-5-(trifluoromethyl)-1H-pyrazole-4-carboxamide]

- cMet inhibition (in words) (cMet): relatively inactive
- RON inhibition (in words) (RON [1]): relatively inactive
Compound: Cn1cnc(-c2ccc3c(Oc4ccc(NC(=O)c5cnn(-c6ccccc6)c5C(F)(F)F)cc4F)n[nH]c3c2)c1 [ENG-018, N-(3-fluoro-4-((6-(1-methyl-1H-imidazol-4-yl)-1H-indazol-3-yl)oxy)phenyl)-1-phenyl-5-(trifluoromethyl)-1H-pyrazole-4-carboxamide]

- IC50 (cMet): 133 nM
- IC50 (RON [1]): 2.8 nM
- selectivity for RON over cMet (cMet IC50/RON IC50) (RON [1]): approximately 50 fold
- IC30 for RON (RON [1]; printed as IC30): 2.8 nM
- selectivity for RON over cMet (cMet IC50/RON IC50) (RON [1]; ratio): > 47
Compound: Cn1cnc(-c2cc3nccc(Oc4ccc(NC(=O)c5cnn(-c6ccccc6)c5C(F)(F)F)cc4F)c3cn2)c1 [ENG-015, N-(3-fluoro-4-((7-(1-methyl-1H-imidazol-4-yl)-1,6-naphthyridin-4-yl)oxy)phenyl)-1-phenyl-5-(trifluoromethyl)-1H-pyrazole-4-carboxamide]
